Assay [1] deals with Beet Armyworm (Spodoptera exigua). As to the kind of experiment: Bioassay on Beet Armyworm (BAW), 128-well diet tray assay. Format: in vivo. The note with it: Spodoptera exigua, 168 h; 50 μg/cm^2 on artificial diet, second instar larvae, five to seven days; read-out: BAW % Control (or Mortality) rating. As for the experimental part: (§1) Certain molecules disclosed in this document were tested against BAW and CL using procedures described in the following examples. In the reporting of the results, the “BAW & CL Rating Table” was used (See Table Section).
Bioassays on BAW were conducted using a 128-well diet tray assay. […] Trays were covered with a clear self-adhesive cover, vented to allow gas exchange, and held at 25° C., 14:10 light-dark for five to seven days. Percent mortality was recorded for the larvae in each well; activity in the eight wells was then averaged. The results are indicated in the table entitled “Table ABC: Biological Results” (See Table Section).

Assay [2] deals with Cabbage Looper (Trichoplusia ni). In words: Bioassay on Cabbage Looper (CL), 128-well diet tray assay. The note with it: 168 h, 50 μg/cm^2 on artificial diet, second instar larvae, five to seven days, read-out: CL % Control (or Mortality) rating. Format: in vivo. The method, then: as §1
Bioassays on CL were conducted using a 128-well diet tray assay. One to five second instar CL larvae were placed in each well (3 mL) of the diet tray that had been previously filled with 1 mL of artificial diet to which 50 μg/cm^2 of the test molecule (dissolved in 50 μL of 90:10 acetone-water mixture) had been applied (to each of eight wells) and then allowed to dry. Trays were covered with a clear self-adhesive cover, vented to allow gas exchange, and held at 25° C., 14:10 light-dark for five to seven days. Percent mortality was recorded for the larvae in each well; activity in the eight wells was then averaged. The results are indicated in the table entitled “Table ABC: Biological Results” (See Table Section).

As to `C#CCN(NC(=O)c1ccc(/C(F)=C/C(c2cc(Cl)c(Cl)c(Cl)c2)C(F)(F)F)cc1C(F)(F)F)c1ncccn1` (centres unmarked) [F150, (Z)—N′-(Prop-2-yn-1-yl)-N′-(pyrimidin-2-yl)-4-(1,4,4,4-tetrafluoro-3-(3,4,5-trichlorophenyl)but-1-en-1-yl)-2-(trifluoromethyl)benzohydrazide], the mortality at 50 µg/cm2 in assay [1] and in assay [2] was 50 to 100% each time.

In the case of `CC(C)N(Nc1ncccn1)C(=O)c1ccc(/C(F)=C/C(c2cc(Cl)c(Cl)c(Cl)c2)C(F)(F)F)cc1C(F)(F)F` (centres unmarked) [F170, (Z)—N-Isopropyl-N′-(pyrimidin-2-yl)-4-(1,4,4,4-tetrafluoro-3-(3,4,5-trichlorophenyl)but-1-en-1-yl)-2-(trifluoromethyl)benzohydrazide], the mortality at 50 µg/cm2 in assay [1] and in assay [2] was 50 to 100% throughout.

As for `COCN(NC(=O)c1ccc(/C(F)=C/C(c2cc(Cl)c(Cl)c(Cl)c2)C(F)(F)F)cc1C(F)(F)F)c1ncccn1` (centres unmarked) [F179, (Z)—N′-(methoxymethyl)-N′-(pyrimidin-2-yl)-4-(1,4,4,4-tetrafluoro-3-(3,4,5-trichlorophenyl)but-1-en-1-yl)-2-(trifluoromethyl)benzohydrazide], the mortality at 50 µg/cm2 in assay [1] and in assay [2] was 50 to 100% in each case.

On to `CC(C)CCN(C)NC(=O)c1ccc(/C(F)=C/C(c2cc(Cl)c(Cl)c(Cl)c2)C(F)(F)F)cc1C(F)(F)F` (centres unmarked) [F160, (Z)—N′-Isopentyl-N′-methyl-4-(1,4,4,4-tetrafluoro-3-(3,4,5-trichlorophenyl)but-1-en-1-yl)-2-(trifluoromethyl)benzohydrazide], for which the mortality at 50 µg/cm2 in assay [1] and in assay [2] was 50 to 100% each time.

As to `CN(C)CCNNC(=O)c1ccc(/C(F)=C/C(c2cc(Cl)c(Cl)c(Cl)c2)C(F)(F)F)cc1C(F)(F)F` (centres unmarked) [F143, (Z)—N′-(2-(Dimethylamino)ethyl)-4-(1,4,4,4-tetrafluoro-3-(3,4,5-trichlorophenyl)but-1-en-1-yl)-2-(trifluoromethyl)benzohydrazide], the mortality at 50 µg/cm2 in assay [1] is 50 to 100%; in assay [2], 0 to 50%.

For `O=C(NNc1ncc(F)cn1)c1ccc(/C(F)=C/C(c2cc(Cl)c(Cl)c(Cl)c2)C(F)(F)F)cc1C(F)(F)F` (centres unmarked) [F114, (Z)—N′-(5-Fluoropyrimidin-2-yl)-4-(1,4,4,4-tetrafluoro-3-(3,4,5-trichlorophenyl)but-1-en-1-yl)-2-(trifluoromethyl)benzohydrazide], the mortality at 50 µg/cm2 in assay [1] and in assay [2] was 50 to 100% each time.

Regarding `NN(CC(=O)NCC(F)(F)F)C(=O)c1ccc(/C(F)=C/C(c2cc(Cl)c(Cl)c(Cl)c2)C(F)(F)F)cc1C(F)(F)F` (centres unmarked) [F149, (Z)-2-(1-(4-(1,4,4,4-tetrafluoro-3-(3,4,5-trichlorophenyl)but-1-en-1-yl)-2-(trifluoromethyl)benzoyl)hydrazinyl)-N-(2,2,2-trifluoroethyl)acetamide], the mortality at 50 µg/cm2 in assay [1] and in assay [2] was 50 to 100% each time.

Consider `O=C(NNc1ncc(C(F)(F)F)cn1)c1ccc(/C(F)=C/C(c2cc(Cl)c(Cl)c(Cl)c2)C(F)(F)F)cc1C(F)(F)F` (centres unmarked) [F101, (Z)-4-(1,4,4,4-Tetrafluoro-3-(3,4,5-trichlorophenyl)but-1-en-1-yl)-2-(trifluoromethyl)-N′-(5-(trifluoromethyl)pyrimidin-2-yl)benzohydrazide], for which the mortality at 50 µg/cm2 in assay [1] and in assay [2] was 50 to 100% throughout.

Turning to `O=C(NNC1=NCCN1)c1ccc(/C(F)=C/C(c2cc(Cl)c(Cl)c(Cl)c2)C(F)(F)F)cc1C(F)(F)F` (centres unmarked) [F116, (Z)—N′-(4,5-Dihydro-1H-imidazol-2-yl)-4-(1,4,4,4-tetrafluoro-3-(3,4,5-trichlorophenyl)but-1-en-1-yl)-2-(trifluoromethyl)benzohydrazide], the mortality at 50 µg/cm2 in assay [1] and in assay [2] was 50 to 100% throughout.

Consider `O=C(NNc1ncccn1)c1ccc(/C(F)=C/C(c2cc(Cl)c(Cl)c(C3CC3)c2)C(F)(F)F)cc1C(F)(F)F` (centres unmarked) [F191, (Z)-4-(3-(3,4-Dichloro-5-cyclopropylphenyl)-1,4,4,4-tetrafluorobut-1-en-1-yl)-N′-(pyrimidin-2-yl)-2-(trifluoromethyl)benzohydrazide], for which the mortality at 50 µg/cm2 in assay [1] and in assay [2] was 50 to 100% each time.

Take `O=C(NNc1cnccn1)c1ccc(/C(F)=C/C(c2cc(Cl)c(Cl)c(Cl)c2)C(F)(F)F)cc1C(F)(F)F` (centres unmarked) [F92, (Z)—N′-(Pyrazin-2-yl)-4-(1,4,4,4-tetrafluoro-3-(3,4,5-trichlorophenyl)but-1-en-1-yl)-2-(trifluoromethyl)benzohydrazide]: the mortality at 50 µg/cm2 in assay [1] and in assay [2] was 50 to 100% in each case.

On to `N#CCCNNC(=O)c1ccc(/C(F)=C/C(c2cc(Cl)c(Cl)c(Cl)c2)C(F)(F)F)cc1C(F)(F)F` (centres unmarked) [F142, (Z)—N′-(2-Cyanoethyl)-4-(1,4,4,4-tetrafluoro-3-(3,4,5-trichlorophenyl)but-1-en-1-yl)-2-(trifluoromethyl)benzohydrazide], for which the mortality at 50 µg/cm2 in assay [1] and in assay [2] was 50 to 100% in each case.

Regarding `O=C(NNc1ncccn1)c1ccc(/C(F)=C/C(c2ccc(C(F)(F)F)c(Cl)c2)C(F)(F)F)cc1C(F)(F)F` (centres unmarked) [F167, (Z)-4-(3-(3-Chloro-4-(trifluoromethyl)phenyl)-1,4,4,4-tetrafluorobut-1-en-1-yl)-N′-(pyrimidin-2-yl)-2-(trifluoromethyl)benzohydrazide], the mortality at 50 µg/cm2 in assay [1] and in assay [2] was 50 to 100% in each case.

Turning to `CN(NC(=O)c1ccc(/C(F)=C/C(c2cc(F)c(F)c(Cl)c2)C(F)(F)F)cc1C(F)(F)F)c1ncccn1` (centres unmarked) [F175, (Z)-4-(3-(3-Chloro-4,5-difluorophenyl)-1,4,4,4-tetrafluorobut-1-en-1-yl)-N′-methyl-N′-(pyrimidin-2-yl)-2-(trifluoromethyl)benzohydrazide], the mortality at 50 µg/cm2 in assay [1] and in assay [2] was 50 to 100% throughout.

As to `O=C(NNc1c(Cl)cc(C(F)(F)F)cc1Cl)c1ccc(/C(F)=C/C(c2cc(Cl)c(Cl)c(Cl)c2)C(F)(F)F)cc1C(F)(F)F` (centres unmarked) [F87, (Z)—N′-(2,6-Dichloro-4-(trifluoromethyl)phenyl)-4-(1,4,4,4-tetrafluoro-3-(3,4,5-trichlorophenyl)but-1-en-1-yl)-2-(trifluoromethyl)benzohydrazide], the mortality at 50 µg/cm2 in assay [1] and in assay [2] was 0% in each case.

For `N#CCN(NC(=O)c1ccc(/C(F)=C/C(c2cc(Cl)c(Cl)c(Cl)c2)C(F)(F)F)cc1C(F)(F)F)c1ncccn1` (centres unmarked) [F189, (Z)—N′-(cyanomethyl)-N′-(pyrimidin-2-yl)-4-(1,4,4,4-tetrafluoro-3-(3,4,5-trichlorophenyl)but-1-en-1-yl)-2-(trifluoromethyl)benzohydrazide], the mortality at 50 µg/cm2 in assay [1] and in assay [2] was 50 to 100% throughout.

`CN(NC(=O)c1ccc(/C(F)=C/C(c2cc(Cl)cc(Cl)c2)C(F)(F)F)cc1C(F)(F)F)c1ncccn1` (centres unmarked) [F151, (Z)-4-(3-(3,5-Dichlorophenyl)-1,4,4,4-tetrafluorobut-1-en-1-yl)-N′-methyl-N′-(pyrimidin-2-yl)-2-(trifluoromethyl)benzohydrazide]: the mortality at 50 µg/cm2 in assay [1] and in assay [2] was 50 to 100% in each case.

For `N#CCN(C(=O)c1ccc(/C(F)=C/C(c2cc(Cl)c(Cl)c(Cl)c2)C(F)(F)F)cc1C(F)(F)F)N(CC#N)c1ncccn1` (centres unmarked) [F187, (Z)—N,N′-bis(cyanomethyl)-N′-(pyrimidin-2-yl)-4-(1,4,4,4-tetrafluoro-3-(3,4,5-trichlorophenyl)but-1-en-1-yl)-2-(trifluoromethyl)benzohydrazide], the mortality at 50 µg/cm2 in assay [1] and in assay [2] was 50 to 100% throughout.

`O=C(NNc1ccncc1)c1ccc(/C(F)=C/C(c2cc(Cl)c(Cl)c(Cl)c2)C(F)(F)F)cc1C(F)(F)F` (centres unmarked) [F57, (Z)—N′-(Pyridin-4-yl)-4-(1,4,4,4-tetrafluoro-3-(3,4,5-trichlorophenyl)but-1-en-1-yl)-2-(trifluoromethyl)benzohydrazide]: the mortality at 50 µg/cm2 in assay [1] and in assay [2] was 50 to 100% each time.

With `O=C(NNc1ncccn1)c1ccc(/C(F)=C/C(c2cc(Cl)c(Cl)c(C(F)F)c2)C(F)(F)F)cc1C(F)(F)F` (centres unmarked) [F186, (Z)-4-(3-(3,4-Dichloro-5-(difluoromethyl)phenyl)-1,4,4,4-tetrafluorobut-1-en-1-yl)-N′-(pyrimidin-2-yl)-2-(trifluoromethyl)benzohydrazide], the mortality at 50 µg/cm2 in assay [1] and in assay [2] was 50 to 100% each time.

On to `CN(NC(=O)c1ccc(/C(F)=C/C(c2cc(Cl)c(Cl)c(Cl)c2)C(F)(F)F)cc1C(F)(F)F)C1CCCC1` (centres unmarked) [F144, (Z)—N′-Cyclopentyl-N′-methyl-4-(1,4,4,4-tetrafluoro-3-(3,4,5-trichlorophenyl)but-1-en-1-yl)-2-(trifluoromethyl)benzohydrazide], for which the mortality at 50 µg/cm2 in assay [1] and in assay [2] was 50 to 100% in each case.

With `O=C(NNC1CCCC1)c1ccc(/C(F)=C/C(c2cc(Cl)c(Cl)c(Cl)c2)C(F)(F)F)cc1C(F)(F)F` (centres unmarked) [F110, (Z)—N′-Cyclopentyl-4-(1,4,4,4-tetrafluoro-3-(3,4,5-trichlorophenyl)but-1-en-1-yl)-2-(trifluoromethyl)benzohydrazide], the mortality at 50 µg/cm2 in assay [1] and in assay [2] was 50 to 100% in each case.

The values above are taken from patent US10638756B2, “Molecules having pesticidal utility, and intermediates, compositions, and processes, related thereto” (Dow AgroSciences LLC, priority 2017, dated 2020).
